Assay results published in patent US8796241B2, “Therapy of tumors and infectious agents deficient in methylthioadenosine phosphorylase” (priority 2007, dated 2014).
Marks after values point to notes of the source that are not given here.

Key:
MTAP(−) A549-ouaR cells = assay: Coculture of HF and A549-ouaR cells, clonogenic assay; type: cell-based, human
Method: (§1) Cell viability of adherent cell types was measured by clonogenic assay as follows: after releasing cells with trypsin and removing a portion of the cell suspension for Coulter counting, the remainder of the cell suspension was plated in serial dilutions in growth medium, without drugs. After a period sufficient for clones to reach a size visible by eye (usually 2 to 3 weeks), clones were stained with crystal violet in a saline/methanol solution. Dishes that had fewer than 100 clones were deemed suitable for counting. From these counts and from the dilution factors, the approximate number of viable cells, in the parent treatment dishes, was calculated. […] In clonogenic assays, clone size was often variable, especially after treatment with toxic drugs. Moreover, many of the very small clones may have arisen from cells detached during the weeks of incubation. […] Cloning efficiency for healthy, growing A549 cells was about 50%; for HF cells, efficiency was quite variable, ranging from 25 to 75% (perhaps because the HF cell stock varied, from experiment to experiment, in passage number).
(§2) HF and A549-ouaR (a ouabain-resistant derivative of the human lung carcinoma cell line A549, isolated by Applicants) cells were cultured together in a medium containing DAP, and with or without 5′-dAdo. After 3 days, cultures were trypsinized and serially diluted into fresh medium for clonogenic assays. Some dishes were treated with 0.1 μM ouabain to kill HF cells and permit easy visualization of surviving A549-ouaR clones. Initial viable cells: HF cells, 11,000; A549-ouaR cells, 40,000.

MTAP(+) HF cells [1] = assay: as above; type: cell-based, human
Method: as §1, §2

MTAP(+) HF cells [2] = assay: Coulter counts of HF cell cultures; type: cell-based, human; settings: for Coulter counts: x56 = cells/dish
Method: For adherent cell types (e.g., HF, A549, MCF7) cells were plated in 60 mm -diameter plastic tissue culture dishes and incubated at 37° C. in a humidified 5% CO2 atmosphere, in Dulbecco's Modified Eagle's Medium (DME) with 10% fetal bovine serum (FBS). At the start of an experiment, medium was replaced with DME and 10% dialyzed FBS.
(§3) For adherent cell types, cell numbers were determined periodically by releasing cells with trypsin (dead cells that were no longer adherent were removed by two prior rinses of the culture dish) and placing a portion of the resulting cell suspension in a Coulter counter. For cell types that grow in suspension, portions of the culture were counted directly, without trypsin treatment. Coulter counts of cells from each dish were done twice, and almost all experiments were done in duplicate. In the presentation of results, raw data for Coulter counts is given in some cases, while in others, counts have been rounded off to two to three significant figures. (Background Coulter counts—i.e., counts of diluent alone—were insignificant.)
Cell cultures were treated with MeP, with or without 5′-dAdo or MTA, for 4 days. The cell cultures were then changed to fresh medium, with the addition of 30 μM Ade to inhibit further action of the analog. Two days later cultures were trypsinized and a portion of the suspension was counted.
• A. F-Ade was added to cultures of HF cells, with varying amounts of 5′-dAdo. After 3 days, cell numbers were counted. • Initial cell count: 1,100 • After three days:
• Cultures of human fibroblasts were treated with DAP, 5′-dAdo, MTA, adenine, or MTX. Thymidine (15 μM) was added to all cultures. • Initial count was: 1807 • Counts, as raw data, after 3 days of incubation, are shown below: […]
• Human fibroblasts in culture were treated with 6-thioguanine (TG), 2,6-diaminopurine (DAP), or 5′-dAdo for 3 days. After trypsinization, cell numbers were counted. • Initial cell number: 296,000

[3] = tested on: human and mouse tumor cells; assay: Killing of tumor cells by adenine analogs (Applicants' findings, no method given); type: cell-based
[4] = tested on: MCF7 cells, an MTAP-negative human breast adenocarcinoma cell line; assay: Coculture of HF and MCF7 cells treated with DAP with or without MTA, photographs; type: cell-based
Method: (§4) FIGS. 6A and 6B present photographs of experiments examining the efficacy of the selective therapeutic method of the invention in two human-tissue coculture experiments. In both experiments human fibroblasts (HF cells), which are MTAP-positive, and MCF7 cells, an MTAP-negative human breast adenocarcinoma cell line, were seeded together into culture dishes, in DME supplemented with 10% dialyzed fetal bovine serum.
(§5) In the experiment of FIG. 6A the cell coculture was treated for four days with 100 μM DAP and 25 μM MTA. At the end of this period, some of the culture dishes were fixed, to be photographed. Other dishes were trypsinized and diluted five-fold into fresh (drug-free) medium with adenine added (to stop any further toxic action of DAP) and allowed to grow for two more, or five more, days, before being fixed for photography.
(§6) In the experiment of FIG. 6B cell cocultures were treated for three days with 200 μM DAP alone or with the addition of 50 μM MTA, or with no drugs at all. As shown in the photo of the dish without any drugs added to the culture medium, both HF and MCF7 grew very well; many large masses of MCF7 cells are visible, with the elongated HF cells interspersed, confluently, between the MCF7 masses.

[5] = tested on: human fibroblasts (HF cells), MTAP-positive; assay: as above; type: cell-based
Method: as §4, §5, §6

MTAP(+) ML-1 cells = assay: Coulter counts of ML-1 suspension cultures; type: cell-based
Method: For cell types that grow in suspension (e.g., ML-1, HL-60, K-562) medium was RPMI-1640 with 10% FBS (undialyzed).
as §3
For cells that grow in suspension, the effect of treatments was assessed solely by changes in Coulter count.
• ML-1 cells were incubated in RPMI 1640 with 10% FBS with 5′-dAdo (60 μM) for 6 hours. 5-fluorouracil (FU), 6-thioguanine (TG), or 2,6-diaminopurine (DAP) were then added, and after 2 additional days, 0.5 ml was taken for Coulter counts. Initial Coulter count/ml: 308,000

MTAP(−) A549 cells [6] = assay: Clonogenic assay of A549 cells; type: cell-based, human
Method: as §1
A549 cells were incubated for 4 days with additions shown below, and viable cells measured by clonogenic assay. (Results shown are approximate; see Methods) Cell count in dish at start: 40,000
(§7) • MTAP(−) A549 lung tumor cell cultures were treated with F-Ade, with or without MTA, 5′-dAdo, or adenine (Ade), for three days. Coulter counts of cells, and viable cells as determined by clonogenic assay, are shown below: • Initial cell number: 10,340*
• A549 cell cultures were treated with DAP, with or without 5′-dAdo or adenine, for three days. After trypsinization, one-fourth of the cell suspension was counted, and raw data is shown below, with duplicate counts for each sample. The cell suspension was also serially diluted for clonogenic assay. • Counts at start of experiment: Dish one: 36,480; 39,160; Dish two: 52,680; 51,360. • Initial viable cells by clonogenic assay: 180,000.
• Cell cultures were treated with MTX or alanosine for one day. DAP was then added and 3 days later, cells were trypsinized and serially diluted for clonogenic assay. Results are shown below: • Initial viable cells: 146,000
• A549 cells were plated, and after they had adhered to the substrate, medium was changed to methionine-free medium with 10% dialyzed serum. L-ethionine (Eth) and MTA were added, and after 4 days, cell cultures were trypsinized and serially diluted for clonogenic assay. • Initial number of viable cells: 160,000*
• A549 cultures were treated with 6-thioguanine (TG) or 2,6,diaminopurine (DAP), or both, for 3 days. • Initial viable cells: 275,000 • After 3 days: […]

MTAP(−) A549 cells [7] = assay: Coulter counts of A549 cell cultures; type: cell-based, human; settings: three days, MTA, 5′-dAdo or Ade 40 μM where present, initial 10,340, x4 = cells per dish
Method: as §3, §7
• A549 cell cultures were treated with DAP, with or without 5′-dAdo or adenine, for three days. After trypsinization, one-fourth of the cell suspension was counted, and raw data is shown below, with duplicate counts for each sample. […]

MTAP(+) HF cells [8] = assay: Clonogenic assay of HF cells; type: cell-based, human
Method: as §1
• B. F-Ade was added to cultures of MTAP(+) HF cells, with or without 5′-dAdo, for 3 days. Cultures were then trypsinized and serially diluted for clonogenic assay. • Initial number of viable cells per dish: 45,000 • Viable cells after 3 days shown below:
• HF cells were plated, and after they had adhered to the substrate, medium was changed to methionine-free medium, with 10% dialyzed serum. • Initial Coulter count: 73,000*; viable cells: 88,000 • After 3 days in methionine-free medium, with or without L-ethionine (Eth) or MTA: […]

[9] = a few days of treatment with 100-200 μM DAP
[10] = three days, DAP 200 μM, MTA 50 μM where present

Nc1nc(N)c2[nH]cnc2n1 [DAP, 2,6-diaminopurine]
killing of A549-ouaR cells in coculture (MTAP(−) A549-ouaR cells; DAP alone): effectively killed
Viable A549-ouaR (MTAP(−) A549-ouaR cells; coculture, 3 days, DAP 125 μM, 5′-dAdo 7.5 μM where present, initial viable A549-ouaR cells 40,000): 0
killing of HF cells in coculture (MTAP(+) HF cells [1]; DAP alone): effectively killed
Viable HF (MTAP(+) HF cells [1]; coculture, 3 days, DAP 125 μM, 5′-dAdo 7.5 μM where present, initial viable HF cells 11,000): 240
Coulter counts (MTAP(+) HF cells [2]; 3 days, MTX 10 μM, DAP 100 μM, 5′-dAdo, MTA or Ade 15 μM where present, thymidine 15 μM in all cultures, initial count 1807): 2,483
Increase in cells/dish (MTAP(+) HF cells [2]; 3 days, TG 40 μM, DAP 50 μM, 5′-dAdo 60 μM where present, initial cell number 296,000): 254,000 cells/dish
inhibition of MTAP(+) HF cells (MTAP(+) HF cells [2]; Example 8): inhibited
inhibition of HF cell growth (MTAP(+) HF cells [2]; Example 15): inhibited
killing of human and mouse tumor cells [3]: very rapid and potent killing
killing of MCF7 cells in coculture [4, 9]: effectively killed
MCF7 cells in coculture (photographs, FIG. 6B) [4, 10]: very few, if any, HF or MCF7 cells have survived
killing of HF cells in coculture [5, 9]: effectively killed
HF cells in coculture (photographs, FIG. 6B) [5, 10]: very few, if any, HF or MCF7 cells have survived
Increase in cell number/ml, No 5′-dAdo (MTAP(+) ML-1 cells; 2 days, FU 3 μM, TG 20 μM, DAP 50 μM where present, initial Coulter count/ml 308,000): 220,000 /ml
inhibition of growth of MTAP(+) ML-1 cells (MTAP(+) ML-1 cells; Example 14): inhibited growth
toxicity to MTAP(−) A549 cells (MTAP(−) A549 cells [6]; 100 μM DAP): highly toxic
Viable Cells (MTAP(−) A549 cells [6]; 3 days, TG 40 μM, DAP 50 μM where present, initial viable cells 275,000): 12,000
Viable Cells (MTAP(−) A549 cells [6]; MTX 1 μM or alanosine 3 μM for one day, then DAP 40 μM, 3 days (where present), initial viable cells 146,000): 59,000
Viable Cells (MTAP(−) A549 cells [6]; three days, DAP 100 μM, 5′-dAdo or Ade 30 μM where present, initial viable cells 180,000): 0

Nc1nc(F)nc2nc[nH]c12 [F-Ade, 2-fluoroadenine]
Coulter counts (MTAP(+) HF cells [2]; 3 days, F-Ade 0.3 μM, 5′-dAdo 7.5 μM where present, initial count 1,100): 1478
Coulter counts (MTAP(+) HF cells [2]; 3 days, F-Ade 0.6 μM, 5′-dAdo 7.5 μM where present, initial count 1,100): 976
inhibition of HF cell growth (MTAP(+) HF cells [2]; increasing concentrations of F-Ade): increasing inhibition
Coulter counts (MTAP(−) A549 cells [7]; F-Ade 1 μM): 7,980
Coulter counts (MTAP(−) A549 cells [7]; F-Ade 2 μM): 7,890
killing of human and mouse tumor cells [3]: very rapid and potent killing
killing of human tumor cells ([3]; very short-term assays of 6 to 12 hours): effectively kill
survival of HF cells (MTAP(+) HF cells [8]; 2 μM F-Ade, after 3 days): no HF cells survive
Viable Cells (MTAP(+) HF cells [8]; 3 days, F-Ade 2 μM, 5′-dAdo 30 μM where present, initial viable cells per dish 45,000): 0*
toxicity to A549 tumor cells, clonogenic assay (MTAP(−) A549 cells [6]; 1 to 2 μM F-Ade): highly toxic
Viable Cells (MTAP(−) A549 cells [6]; three days, F-Ade 1 μM, MTA, 5′-dAdo or Ade 40 μM where present): 64
Viable Cells (MTAP(−) A549 cells [6]; three days, F-Ade 2 μM, MTA, 5′-dAdo or Ade 40 μM where present): 0
